Results from patent US9493438B2, “4,4-difluoro-piperidine-compounds” (ROTTAPHARM BIOTECH S.R.L., priority 2012, dated 2016).

Legend:
[1] = molecular target: T1, human OX1 receptors (Homo sapiens, UniProt O43613); assay: antagonistic activity against human OX1 receptor, [Ca2+]i fluorimetry in transfected CHO cells; assay type: cell-based; conditions: CHO cells transfected with human recombinant OX1; activated with orexin-A 3 nM; pKb = co-logarithm of apparent dissociation constant (modified Cheng Prusoff)
T1 construct: expressed in transfected cells; host or cells: CHO cells
T1 sequence (O43613 1-425): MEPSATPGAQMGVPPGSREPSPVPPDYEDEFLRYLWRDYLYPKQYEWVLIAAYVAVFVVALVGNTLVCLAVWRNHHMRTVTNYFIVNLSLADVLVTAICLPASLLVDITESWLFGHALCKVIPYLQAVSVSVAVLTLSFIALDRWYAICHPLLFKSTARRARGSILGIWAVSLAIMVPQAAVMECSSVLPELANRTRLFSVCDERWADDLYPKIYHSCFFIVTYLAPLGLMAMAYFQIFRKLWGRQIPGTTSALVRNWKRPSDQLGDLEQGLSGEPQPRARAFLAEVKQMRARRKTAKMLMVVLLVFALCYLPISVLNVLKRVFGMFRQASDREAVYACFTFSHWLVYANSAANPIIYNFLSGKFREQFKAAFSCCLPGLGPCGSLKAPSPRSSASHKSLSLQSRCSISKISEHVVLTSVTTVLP
Protocol: (§1) Thus the plate was loaded with the calcium dye (Fluo-4NW/probenecid in HBSS, Hepes 20 mM, pH 7.4; Invitrogen) at 37° C. for 60 min. Afterward the temperature was equilibrated at 22° C. for 15 min and the [Ca2+]i measured directly on the plate by using a fluorescent plate reader (CeliLux Perkin Elmer).
(§2) Invention compounds were dissolved in DMSO, diluted in HBSS (DMSO, 0.3% final) and added to the wells. After 5 min CHO cells were activated with orexin-A, 3 nM while HEK-293 cells were activated with orexin-B, 10 nM. […] The antagonistic activity has been expressed as pKb (co-logarithm of the apparent dissociation constant calculated by using the modified Cheng Prusoff equation). The results are expressed as percent of control specific […] response ((measured specific response/control specific agonist response)×100) obtained in the presence of the test compounds.
(§3) The IC50 values (concentration causing a half-maximal inhibition of the control specific agonist response) were determinated by non-linear regression analysis of the concentration curves generated with mean replicate values using hill equation curve fitting. The IC50 values are obtained by the arithmetical mean of at least two experiments.

[2] = molecular target: T2, human OX2 receptors (Homo sapiens, UniProt O43614); assay: antagonistic activity against human OX2 receptor, [Ca2+]i fluorimetry in transfected HEK-293 cells; assay type: cell-based; conditions: read-out: PKb OX2 (converted)
T2 construct: expressed in transfected cells; host or cells: HEK-293 cells
T2 sequence (O43614 1-444): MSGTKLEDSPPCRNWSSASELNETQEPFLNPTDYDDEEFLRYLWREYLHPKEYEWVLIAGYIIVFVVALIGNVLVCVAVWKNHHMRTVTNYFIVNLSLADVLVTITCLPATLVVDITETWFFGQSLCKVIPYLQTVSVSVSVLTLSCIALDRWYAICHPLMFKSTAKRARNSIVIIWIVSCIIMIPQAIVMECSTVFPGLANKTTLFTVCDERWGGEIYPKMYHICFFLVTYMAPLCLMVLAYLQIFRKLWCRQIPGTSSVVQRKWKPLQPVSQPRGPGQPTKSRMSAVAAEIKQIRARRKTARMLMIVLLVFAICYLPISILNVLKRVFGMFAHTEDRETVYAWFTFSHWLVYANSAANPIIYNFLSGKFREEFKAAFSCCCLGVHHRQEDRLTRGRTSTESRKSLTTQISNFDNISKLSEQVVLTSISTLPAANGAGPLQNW
Protocol: as §1, §2, §3

Kb [1] [nM] | Kb [2] [nM] | Compound
1 | 10000 | O=C(c1nccc2ccccc12)N1CCC(F)(F)CC1CNc1ccc(Cl)cn1 (single isomer, unassigned; isomer b) [Compound 24, (2-(((5-chloropyridin-2-yl)amino)methyl)-4,4-difluoropiperidin-1-yl)(isoquinolin-1-yl)methanone (isomer B)]
0.794 | 10000 | O=C(c1cccc2cccnc12)N1CCC(F)(F)CC1CNc1ccc(Cl)cn1 (racemic) [Compound 25, (RS)(2-(((5-chloropyridin-2-yl)amino)methyl)-4,4-difluoropiperidin-1-yl)(quinolin-8-yl)methanone]
0.631 | 10000 | Cc1ccc(-c2ncccn2)c(C(=O)N2CCC(F)(F)CC2CNc2ccc(Cl)cn2)n1 (single isomer, unassigned; isomer a) [Compound 16, (2-(((5-chloropyridin-2-yl)amino)methyl)-4,4-difluoropiperidin-1-yl)(6-methyl-3-(pyrimidin-2-yl)pyridin-2-yl)methanone (isomer A)]
31.6 | 10000 | O=C(c1nc(C(F)(F)F)ccc1-c1ncccn1)N1CCC(F)(F)CC1CNc1ccc(C(F)(F)F)cn1 (racemic) [Compound 39, (RS)(4,4-difluoro-2-(((5-(trifluoromethyl)pyridin-2-yl)amino)methyl)piperidin-1-yl)(3-(pyrimidin-2-yl)-6-(trifluoromethyl)pyridin-2-yl)methanone]
1.58 | 10000 | O=C(c1cccc2cccnc12)N1CCC(F)(F)CC1CNc1ccc(Cl)cn1 (single isomer, unassigned; isomer a) [Compound 26, (2-(((5-chloropyridin-2-yl)amino)methyl)-4,4-difluoropiperidin-1-yl)(quinolin-8-yl)methanone (isomer A)]
0.794 | 316 | Cc1ccc(-c2ncccn2)c(C(=O)N2CCC(F)(F)CC2CNc2ccc(C(F)(F)F)cn2)n1 (single isomer, unassigned; isomer a) [Compound 20, (4,4-difluoro-2-(((5-(trifluoromethyl)pyridin-2-yl)amino)methyl)piperidin-1-yl)(6-methyl-3-(pyrimidin-2-yl)pyridin-2-yl)methanone (isomer A)]
1.58 | 10000 | N#Cc1ccc(-c2ncccn2)c(C(=O)N2CCC(F)(F)CC2CNc2ccc(Cl)cn2)c1 (racemic) [Compound 27, (RS)3-(2-(((5-chloropyridin-2-yl)amino)methyl)-4,4-difluoropiperidin-1-carbonyl)-4-(pyrimidin-2-yl)benzonitrile]
2 | – | O=C(c1ccccc1OCC1CC1)N1CCC(F)(F)CC1CNc1ccc(Cl)cn1 (racemic) [Compound 12, (RS)(2-(((5-chloropyridin-2-yl)amino)methyl)-4,4-difluoropiperidin-1-yl)(2-(cyclopropylmethoxy)phenyl)methanone]

The next lines start with the compound.

Compound | Kb [1] [nM] | Kb [2] [nM]
Cc1ccc(-c2ncccn2)c(C(=O)N2CCC(F)(F)CC2CNc2ncc(C(F)(F)F)cc2F)n1 (single isomer, unassigned; isomer a) [Compound 32, (4,4-difluoro-2-(((3-fluoro-5-(trifluoromethyl)pyridin-2-yl)amino)methyl)piperidin-1-yl)(6-methyl-3-(pyrimidin-2-yl)pyridin-2-yl)methanone (isomer A)] | 2.51 | 10000
O=C(c1ncccc1-c1ccccc1)N1CCC(F)(F)CC1CNc1ccc(C(F)(F)F)cn1 (racemic) [Compound 51, (RS)(4,4-difluoro-2-((5-(trifluoromethylpyridin-2-yl)amino)methyl)piperidin-1-yl)(3-phenylpyridin-2-yl)methanone] | 6.31 | 10000
Cc1ccc(-c2ccccn2)c(C(=O)N2CCC(F)(F)CC2CNc2ccc(C(F)(F)F)cn2)n1 (racemic) [Compound 53, (RS)(4,4-difluoro-2-(((5-(trifluoromethyl)pyridin-2-yl)amino)methyl)piperidin-1-yl)(6′-methyl-[2,3′-bipyridin]-2′-yl)methanone] | 15.8 | 10000
O=C(c1nccc2ccccc12)N1CCC(F)(F)CC1CNc1ccc(C(F)(F)F)cn1 (single isomer, unassigned; isomer a) [Compound 41, (4,4-difluoro-2-(((5-(trifluoromethyl)pyridin-2-yl)amino)methyl)piperidin-1-yl)(isoquinolin-1-yl)methanone (isomer A)] | 1.58 | 10000
Cc1ccc(-c2ncccn2)c(C(=O)N2CCC(F)(F)CC2CNc2ncc(C(F)(F)F)cc2F)n1 (racemic) [Compound 31, (RS)(4,4-difluoro-2-(((3-fluoro-5-(trifluoromethyl)pyridin-2-yl)amino)methyl)piperidin-1-yl)(6-methyl-3-(pyrimidin-2-yl)pyridin-2-yl)methanone] | 3.98 | 10000
COc1ccc(OC)c(C(=O)N2CCC(F)(F)CC2CNc2ccc(Cl)cn2)c1 (racemic) [Compound 11, (RS)(2-(((5-chloropyridin-2-yl)amino)methyl)-4,4-difluoropiperidin-1-yl)(2,5-dimethoxyphenyl)methanone] | 7.94 | 10000
Cc1ccc(OCC2CC2)c(C(=O)N2CCC(F)(F)CC2CNc2ccc(C(F)(F)F)cn2)n1 (racemic) [Compound 45, (RS)(3-(cyclopropylmethoxy)-6-methylpyridin-2-yl)(4,4-difluoro-2-(((5-(trifluoromethyl)pyridin-2-yl)amino)methyl)piperidin-1-yl)methanone] | 3.98 | 10000
Cc1ccc(-c2ccccc2)c(C(=O)N2CCC(F)(F)CC2CNc2ccc(C(F)(F)F)cn2)n1 (single isomer, unassigned; isomer b) [Compound 38, (4,4-difluoro-2-(((5-(trifluoromethyl)pyridin-2-yl)amino)methyl)piperidin-1-yl)(6-methyl-3-phenylpyridin-2-yl)methanone (isomer B)] | 3.16 | 126
Cc1ccc(-c2ccccc2)c(C(=O)N2CCC(F)(F)CC2CNc2ncc(C(F)(F)F)cc2F)n1 (racemic) [Compound 44, (RS)(4,4-difluoro-2-(((3-fluoro-5-(trifluoromethyl)pyridin-2-yl)amino)methyl)piperidin-1-yl)(6-methyl-3-phenylpyridin-2-yl)methanone] | 3.98 | 200
Cc1ccc(OCC2CC2)c(C(=O)N2CCC(F)(F)C[C@H]2CNc2ccc(C(F)(F)F)cn2)n1 [Compound 46, (S)(3-(cyclopropylmethoxy)-6-methylpyridin-2-yl)(4,4-difluoro-2-(((5-(trifluoromethyl)pyridin-2-yl)amino)methyl)piperidin-1-yl)methanone] | 15.8 | 10000
Cc1ccc(-c2ccccc2)c(C(=O)N2CCC(F)(F)CC2CNc2ccc(C(F)(F)F)cn2)n1 (racemic) [Compound 36, (RS)(4,4-difluoro-2-(((5-(trifluoromethyl)pyridin-2-yl)amino)methyl)piperidin-1-yl)(6-methyl-3-phenylpyridin-2-yl)methanone] | 3.16 | 10000
O=C(c1ccccc1OCc1ccccc1)N1CCC(F)(F)CC1CNc1ccc(Cl)cn1 (racemic) [Compound 21, (RS)(2-(benzyloxy)phenyl)(2-(((5-chloropyridin-2-yl)amino)methyl)-4,4-difluoropiperidin-1-yl)methanone] | 5.01 | –
Cc1ccc(-n2nccn2)c(C(=O)N2CCC(F)(F)CC2CNc2ccc(C(F)(F)F)cn2)c1 (racemic) [Compound 5, (RS)(4,4-difluoro-2-(((5-(trifluoromethyl)pyridin-2-yl)amino)methyl)piperidin-1-yl)(5-methyl-2-(2H-1,2,3-triazol-2-yl)phenyl)methanone] | 5.01 | –
